EPA's ToxValDB 9.5 (doi:10.2903/j.efsa.2009.217r)
Converted amounts (≈) assume the structure as drawn.

Tests used:
Colinus virginianus = settings: acute; oral; diet; mortality
Anas platyrhynchos = settings: oral, mortality
Pimephales promelas = settings: chronic/long-term; duration: 21 days; growth
Oryctolagus sp. = settings: reproduction developmental; body weight
Tagia sp. = settings: acute; duration: 14 days; mortality
Oncorhynchus mykiss = settings: acute; duration: 96 hours; mortality
Bibionidae = settings: chronic/long-term; duration: 28 days

## Oc1ccccc1-c1ccccc1 [2-Phenylphenol]
Colinus virginianus
  LC50: > 2810 mg/kg-day
Anas platyrhynchos; acute, unspecified
  LD50: > 2250 mg/kg-day
Anas platyrhynchos; short-term, feed
  LC50: > 1900 mg/kg-day
Pimephales promelas
  NOEC: 0.036 mg/L
Oryctolagus sp.
  NOAEL: 100 mg/kg-day
Tagia sp.
  LC50: 198 mg/kg
Rattus norvegicus; acute, oral, mortality
  LD50: 2730 mg/kg-day
Rattus norvegicus; chronic, duration: 2 years, oral, Fischer 344, histopathology: neoplastic
  NOAEL: 39 mg/kg-day
Rattus norvegicus; reproduction developmental
  NOAEL: 500 mg/kg-day
Oncorhynchus mykiss
  LC50: 4 µg/mL (≈ 23.5 µM)
Bibionidae
  NOEC: 1.85 mg/L
